Results reported in patent publication US20060287273A1, “Methods and reagents for inhibiting cell proliferation” (priority 2005, published 2006).

Tested on: MDA-MB-435S cells
Assay: TUNEL assay analyzed by FACS (apoptosis)
Format: cell-based, human
Details: 48 hours post-transfection; staurosporine 1 uM; versus control siRNA
Method: To examine this possibility, we utilized the TUNEL assay, which measures the appearance of free DNA ends that are the result of DNA fragmentation that occurs in the latter stages of apoptosis. MDA-MB-435S cells in 6 well dishes were transfected with the corresponding siRNA or treated with 1 uM staurosporine. 48 hours post-transfection, any detached cells were combined with cells detached using trypsin and the cells were washed, fixed with paraformaldehyde, subjected to TUNEL assay, and analyzed by FACS. […] Cells to be assayed were trypsinized, washed twice with PBS, followed by fixation for 20 min. in 1.5% paraformaldehyde in PBS at 4° C. with gentle mixing. The cells were then washed twice with PBS, suspended in 70% ethanol at 4° C., and stored at −20° C. until assayed. When assayed, the cells were washed twice with PBS and then resuspended in 50 μl of Tunel assay buffer consisting of 100 mM potassium cacodylate (pH 7.2), 2 mM CoCl2, 0.2 mM dithiotheitol, 3.3 nM fluorescein-conjugated dUTP, 13 nM DATP and 11 units of terminal deoxynucleotidyl transferase for 90 minutes at 37° C. The cells were then washed twice with PBS and analyzed by FACS sorting.

SMILES: CN[C@@H]1C[C@H]2O[C@@](C)([C@@H]1OC)n1c3ccccc3c3c4c(c5c6ccccc6n2c5c31)C(=O)NC4 [Staurosporine]
- apoptosis, incorporation of fluorescein-labeled dUTP: most dramatic increase in apoptotic cells
